Source: patent publication US7763441B2, “Modulators of gluconeogenesis” (Wyeth, priority 2006, dated 2010)
Read-outs that look alike come from different tables or passages of the source.

Tests used:
[1] = target: T1, p38 (Rattus norvegicus, UniProt P70618); experiment: Western blot of p38 phosphorylation in serum starved H4IIE cells; assay type: cell-based; settings: 2 hours
T1 construct: addition of cAMP to serum starved H4IIE cells for 2 hours leads to an increase in the phosphorylation of p38; endogenous in cells; host or cells: H4IIE rat hepatoma cells
T1 sequence (P70618 whole entry): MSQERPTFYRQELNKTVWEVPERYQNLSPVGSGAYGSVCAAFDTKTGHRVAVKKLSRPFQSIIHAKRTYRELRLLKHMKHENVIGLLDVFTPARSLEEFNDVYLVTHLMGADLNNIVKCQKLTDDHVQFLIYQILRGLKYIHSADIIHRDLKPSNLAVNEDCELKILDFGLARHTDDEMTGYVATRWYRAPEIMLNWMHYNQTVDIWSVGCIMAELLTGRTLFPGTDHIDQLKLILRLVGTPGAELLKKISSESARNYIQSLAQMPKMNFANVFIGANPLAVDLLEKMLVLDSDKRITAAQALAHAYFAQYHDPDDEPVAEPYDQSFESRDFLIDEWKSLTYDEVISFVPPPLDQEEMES
Procedure: (§1) Panel A is a Western blot of H4IIE cells starved for 6 hours and then treated as indicated by the chart for 2 hours. […] is a specific p38 chemical inhibitor. LPS is included as a positive control of p38 activation.
(§2) FIG. 7A includes a Western blot probed with anti-p38 or anti-phosphor-p38 antibodies (Cell Signaling Technology) at a 1:1000 dilution.

[2] = system: JNK; settings: H4IIE cells, data not shown
Excerpt: Members of the DUSP family show differing specificities for the MAPK family of kinases. DUSP4 has been previously shown to dephosphorylate and inactivate the MAPK family members ERK and JNK, but not p38.
as §2

[3] = system: rat DUSP4 promoter EGR1 site; settings: H4IIE, AICAR 2 or 6 hours
Procedure: Arrows indicate sites of primers used for chromatin immunoprecipitation assay (−72 to −261 bp from the transcriptional start site).
To cross-link protein and DNA, formaldehyde was added at a 1% (vol/vol) concentration to H4IIE cells in a 100 mm dish. Fixation proceeded for 10 min at room temperature with gentle shaking and was stopped with the addition of glycine to a final concentration of 0.125M, and then the mixture was incubated at room temperature for 5 min. The cells were then washed twice with cold phosphate-buffered saline (PBS), harvested, and washed once with PBS containing PMSF. The cell pellet was lysed with immunoprecipitation assay lysis buffer (150 mM NaCl, 1% NP-40, 0.5% deoxycholate, 0.1% sodium dodecyl sulfate [SDS], 50 mM Tris [pH 8], 5 mM EDTA and protease inhibitors [1 mM PMSF, 10 μg of aprotinin/ml, 10 μg of leupeptin/ml]) and incubated on ice for 10 min. The resulting lysate was sonicated to give chromatin of an average length of 600 to 1,000 bp. The lysate was then microcentrifuged at 14,000 rpm for 10 min at 4° C. The lysate was then precleared with 50 μl of protein A beads (IPA 400; Repligen) for 15 min. Immunoprecipitations were performed overnight with 2 μg of antibody in a total volume of 500 μl at 4° C. […] A 5 μl aliquot was analyzed by PCR with Vent polymerase (NEB). […]

[4] = system: rat PEPCK promoter; experiment: PEPCK-SEAP reporter assay in H4IIE cells; assay type: cell-based
Procedure: FIG. 5 schematically depicts the effects of EGR1 and DUSP4 expression levels on PEPCK promoter activity. For the experiments shown in panels A and B, H4IIE hepatocytes were transfected with the PEPCK-SEAP reporter plasmid and either DUSP4 or EGR1 expression plasmids or DUSP4 or EGR1 siRNA Smartpools. 24 hours after transfection the media were changed to 0.5%FBS/DMEM for 5 hours. […] Panel A depicts the effects of EGR1 modulation on PEPCK promoter activity; panel B depicts the effects of DUSP4 modulation on PEPCK promoter activity.
as §1
The rat PEPCK promoter (−548 to +73) was amplified from rat genomic DNA using primers 5′-[…]-3′ (SEQ ID NO:8) and 5′-[…]-3′ (SEQ ID NO:9) (Xu et al. (2003)) J. Biol. Chem. 278:30187-30192). The human G6P promoter (−1227 to +57) was amplified from human genomic DNA using primers: 5′-[…]-3′ (SEQ ID NO:10) and 5′-[…]-3′ (SEQ ID NO:11). The promoters were subsequently cloned into XhoI and HindIII sites of pSEAP-BASIC vector (Clontech).
H4IIE cells were seeded in 24-well plates and transfected at 90% confluence using Tfx-50 Reagent (Promega). 0.9 μg of each SEAP reporter and 0.2 μg of pCMV-β-gal (BD Biosciences) were included. 0.4 μg of pCMV-XL5-human-DUSP4 (NM_001394, Origene) or pCMV-Sport6-human EGR1 (BC073983, Open Biosystems), or pMEV2HA-P38-WT and P38-EE (Biomyx), or empty pCMV-Sport6 were included. SiGenome Smartpool reagents were included at […]. […] 60 μl of the media was utilized for the SEAP assay (Great EscAPe SEAP Kit, BD Biosciences) and cell lysate was used for β-gal assay (Luminescent β-galactosidase detection kit, BD Biosciences).

[5] = system: EGR1 expression; settings: H4IIE, AICAR
Procedure: The anti-tubulin blot is a loading control.
(§3) Double-stranded cDNA was synthesized starting with 5 μg of total RNA from the cells using the SuperScript System (Invitrogen, Carlsbad, Calif.). The cDNA was purified by filtration through Multiscreen filter plate (Millipore), and transcribed in vitro using T7 RNA polymerase (Epicentre, Madison, Wis.) and biotinylated nucleotides (Perkin-Elmer, Boston, Mass.). Hybridization buffer containing the spike pool reagent was added to each of the fragmented cRNA mixtures and each sample was hybridized to the Mouse Genome 430 2.0 array ([…]) or Rat Genome 230 2.0 array (RAE230) (Affymetrix, Santa Clara) at 45° C. for 18 hours as recommended by the manufacturer. The hybridized chips were washed and stained using Affymetrix Fluidics Station 450 and the EukGE-WS2v4—450 protocol as recommended by the manufacturer. The staining was performed using streptavidin-phycoerythrin conjugate (SAPE; Molecular Probes, Eugene, Oreg.), followed by biotinylated antibody against streptavidin (Vector Laboratories, Burlingame, Calif.), and then SAPE. The chips were scanned using an Affymetrix Genechip Scanner and .cel files were generated with Affymetrix Microarray Suite 5.0 (MAS 5.0) software.
Total RNA was isolated from these cells and hybridized on the RAE430 2.0 array and analyzed in the same manner as the AML12 cells.

[6] = system: DUSP4 mRNA; settings: H4IIE, AICAR
Excerpt: (§4) As in FIG. 2, the anti-tubulin blot is a loading control.
(§5) Taqman was utilized since the DUSP4 probe set on the RAE430 2.0 array was not as sensitive as the DUSP4 set on the MOE430 2.0 array.

[7] = system: Fao hepatoma cells; experiment: Glucose production assay in Fao cells; assay type: cell-based; settings: cAMP plus dexamethasone, 500 μM AICAR
Procedure: For the experiment shown in panel A, Fao cells were transfected with either EGR1 or DUSP4 siRNA Smartpools. […] The cells were then cultured with phenol-red and glucose free RPMI1640 with 20 mM lactate and 2mM pyruvate. After 3 hours the media was collected and glucose output was determined. The data are presented as relative glucose production with the untreated transfected cells' glucose output set as 1. The asterisk indicates key changes between samples. P-values of all changes are ≦0.01 as determined by T-test. Panel B contains Western blots of EGR1 and DUSP4 or representative samples from the glucose production assay following transfection with the indicated siRNA Smartpools. The tubulin blot is included as a loading control.
1 million Fao cells cultured in RPMI1640 with 10% FCS were transfected with siGenome SMARTpool reagents for EGR1 (#M-100247-00), DUSP4 (#M-098966-00), or siCONTROL Non-Targeting siRNA (Dharmacon) using Optifect (Invitrogen) at 25 nM final concentration. […] Medium was collected 5 hours later and subjected to glucose measurement using the Amplex® Red Glucose/Glucose Oxidase Assay Kit (Molecular Probes). Cells were lysed and protein concentration was determined. The glucose output rate was normalized by cellular protein concentration and expressed as μg glucose/mg protein/5 hr. […]

[8] = system: DUSP4 message; settings: AML12, 500 μM AICAR
Procedure: (§6) Each gene is represented by a single row and each sample, in triplicate at each time point, by a column. […] The mean expression±STD of DUSP4 (qualifier #1428834_at) and EGR1 (qualifier #1417065_at) are illustrated graphically as well as highlighted in yellow on the cluster.
(§7) AML12 cells were maintained in DMEM/F12 medium containing 10% FCS, […], 5 ng/ml selenium and 40 ng/ml dexamethasone.
as §3
(§8) Using normalized data, after removing lowly expressed genes, we performed ANOVA analysis.

[9] = system: EGR1 message; settings: AML12, 500 μM AICAR
Procedure: as §6, §7, §3, §8

[10] = system: DUSP4 protein; settings: H4IIE
Procedure: as §4
Lysates were prepared with a buffer containing 20 mM Tris (pH 7.5), 150 mM NaCl, 1 mM EDTA, 1 mM EGTA, 1% Triton X-100, 2.5 mM sodium pyrophosphate, 1 mM β-glycerophosphate, 1 mM sodium vanadate, and 1 μg of leupeptin/ml. 20 μg of lysate for each sample was run on NuPAGE 10% polyacrylamide bis/tris gels (Invitrogen) and transferred to PVDF membrane. Following blocking with 5% milk in TBS, anti-EGR1 (SC-110, Santa Cruz) at 1:1000 or anti alpha-tubulin (Abcam) at 1:2000 was blotted in TBS with 0.1% Tween. Goat anti-mouse HRP (Jackson Immuno-Research) was used at 1:5000 and blots were visualized by using enhanced chemiluminescence (NEN).
as §5

[11] = system: G6P and PEPCK expression; settings: rat hepatoma cells or primary hepatocytes (Lochhead et al. 2000); cited from earlier work
[12] = system: EGR1; settings: Bauer et al. 2005; cited from earlier work

SB205830
cAMP-induced phosphorylation of p38 (Western blot) [1]: inhibited

NC(=O)c1ncn([C@@H]2O[C@H](CO)[C@@H](O)[C@H]2O)c1N [AICAR]
JNK activity [2]: not inhibited | EGR1 site of DUSP4 promoter amplified after anti-EGR1 chromatin immunoprecipitation (189 bp PCR product) [3]: amplified | Inhibition of PEPCK activation at low AICAR concentration ([4]; 100 μM AICAR by itself): not sufficient to inhibit PEPCK activation | PEPCK transcription (activation) ([4]; 100 μM AICAR, without exogenous EGR1): 12 fold | Repression of cAMP and dexamethasone activation of PEPCK reporter ([4]; AICAR, control siRNA included): fully repressed | Effect on cAMP activation of the PEPCK promoter ([4]; FIG. 7B): repress cAMP activation of the PEPCK promoter | Inhibition of cAMP and dexamethasone activation of the PEPCK promoter ([4]; PEPCK-SEAP, AICAR 500 μM or DUSP4 expression vector): approximately 36 fold | EGR1 expression increase relative to control ([5]; 2 hours): 6 fold | EGR1 expression increase relative to control ([5]; 6 hours): 5 fold | EGR1 expression increase relative to control ([5]; 24 hours): 3 fold | DUSP4 message increase ([6]; 2 hours): 20 fold | DUSP4 message increase ([6]; 6 hours): 4 fold | DUSP4 message increase ([6]; 24 hours): 4 fold | Glucose output after inhibition, distance from untreated levels [7]: ≤ 30% | cAMP-induced phosphorylation of p38 (Western blot) [1]: inhibited | DUSP4 message increase relative to untreated controls ([8]; 2 hours): 4 fold | DUSP4 message increase relative to untreated controls ([8]; 6 hours): 6 fold | DUSP4 message increase relative to untreated controls ([8]; 24 hours): 5 fold | EGR1 increase relative to control ([9]; 2 hours): 3 fold | EGR1 increase relative to control ([9]; 6 hours): 3 fold | EGR1 increase relative to control ([9]; 24 hours): 2 fold | Time of AICAR treatment within which DUSP4 is induced ([10]; AICAR): ≤ 2 h | DUSP4 protein level (Western blot) ([10]; AICAR time course, decrease to more basal levels at 12 hours): increase of DUSP4 protein at 2 and 6 hours | Expression of G6P and PEPCK [11]: inhibits expression G6P and PEPCK

CCCCCCCCCCCCCC(=O)O[C@@H]1[C@@H](C)[C@@]2(O)[C@@H](C=C(CO)C[C@]3(O)C(=O)C(C)=C[C@@H]23)[C@@H]2C(C)(C)[C@]12OC(C)=O [TPA, 12-O-tetradecanoylphorbol-13-acetate]
EGR1 biosynthesis [12]: strongly upregulates EGR1 biosynthesis
